What is called IC50 is the concentration at which inhibition is half-maximal. A higher IC50 goes with a need for much substance.

What all share (format): cell-based, human
The subject of assay [1] is normal skin fibroblasts (HFF-1). In words: Cytotoxicity MTT assay, normal skin fibroblasts. The conditions noted are these: Homo sapiens, HFF-1, 72 h, 72 h incubation, mean ± SD. A digest of the protocol:
(§1)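 MTT read-out after 72 h exposure to compounds (0.01–100 µM, fivefold/tenfold dilutions in growth medium). Seeding 3000 cells/well for carcinoma lines, 5000 for HFF-1. IC50 by linear regression; 5-FU reference.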
A general note: Tetrazolium assays rely on reduction of a dye to a coloured formazan, in cell work by metabolically active cells.

For assay [2], the system named is breast adenocarcinoma (MCF7) cells. As to the kind of experiment: Antiproliferative MTT assay, MCF-7. The conditions noted are these: Homo sapiens, MCF7; 72 h incubation, MTT; mean ± SD. The method in brief: as §1
Assay [3] relates to pancreatic ductal adenocarcinoma (CFPAC-1) cells. In words: Antiproliferative MTT assay, CFPAC-1. The conditions noted are these: Homo sapiens, CFPAC-1, 72 h, 72 h incubation, MTT; mean ± SD. A digest of the protocol:
as §1

The subject of assay [4] is MCF-7, CFPAC-1, HT-29, HepG2 tumor cell lines and HFF-1 fibroblasts. In words: Antiproliferative activity, whole cell line panel. The conditions noted are these: tested cell lines. The procedure: The human ATCC tumor cell lines breast adenocarcinoma (MCF7), colorectal carcinoma (HT-29), pancreatic ductal adenocarcinoma (CFPAC-1), hepatocellular carcinoma (HepG2), and normal skin fibroblasts (HFF) derived from ATCC (American Type Culture Collection) were cultured in Dulbecco’s Modified Eagle Medium (DMEM) or Minimum Essential Medium (MEM) supplemented with 10% fetal bovine serum (FBS), 2 mM L-glutamine, 100 U/mL penicillin, and 100 µg/mL streptomycin (Lonza, Basel, Switzerland) in a humidified atmosphere with 5% CO2 at 37 °C. For the experiment, carcinoma cell lines and normal human cell lines were seeded in 96-well microtiter plates at a density of 3000 cells per well and 5000 cells per well, respectively, depending on the doubling time of the specific cell line. The test substances were then added at fivefold, tenfold dilutions (0.01 to 100 µM), freshly prepared in the growth medium on the day of testing, and incubated for a further 72 h. After 72 h of incubation, the growth rate of the cells was determined using the MTT assay according to the manufacturer’s guidelines. […] The IC50 values were calculated from the dose–response curves using linear regression analysis. The experiment was performed in tetraplicates in two individual experiments.
Newly synthesized compounds were evaluated for their cytotoxic activity in vitro against four human cancer cell lines, including human breast adenocarcinoma (MCF-7), ductal pancreatic adenocarcinoma (CFPAC-1), colorectal carcinoma (HT-29), and hepatocellular carcinoma (HepG2), as well as on non-cancerous skin fibroblasts (HFF-1), to check for non-specific toxicity. Furthermore, 5-Fluorouracil (5-FU) was used as a reference drug. The results are expressed as 50% inhibitory concentration (IC50) values and are listed in Table 2, Table 3, Table 4 and Table 5.

Assay [5] deals with colorectal carcinoma (HT-29) cells. In words: Antiproliferative MTT assay, HT-29. The conditions noted are these: Homo sapiens, HT-29, 72 h, 72 h incubation, MTT; mean ± SD. The method in brief:
as §1

The subject of assay [6] is hepatocellular carcinoma (HepG2) cells. As to the kind of experiment: Antiproliferative MTT assay, HepG2. The conditions noted are these: Homo sapiens, HepG2, 72 h, 72 h incubation, MTT; mean ± SD. A digest of the protocol: as §1

Regarding `OCC(c1ccccc1)n1cc(Cn2ccc3ccccc32)nn1` (stereo not drawn) [Compound 26a, 1-((1-(2-Hydroxy-1-phenylethyl)-1H-1,2,3-triazol-4-yl)methyl)-1H-indole], the IC50 in assay [1], in assay [2], in assay [3], in assay [5] and in assay [6] was over 100 µM in each case. In assay [4], the “antiproliferative activity (in words)” value is “deprived of any activity”.
On to `OC(Cn1cc(Cn2ccc3ccccc32)nn1)c1ccccc1` (stereo not drawn) [Compound 26b, 1-((1-(2-Hydroxy-2-phenylethyl)-1H-1,2,3-triazol-4-yl)methyl)-1H-indole], for which the IC50 in assay [1], in assay [2], in assay [3], in assay [5] and in assay [6] was over 100 µM in each case. Also, the “antiproliferative activity (in words)” value in assay [4] is on record as “deprived of any activity”.
For `OCC(c1ccccc1)n1cc(Cn2cnc3ccccc32)nn1` (stereo not drawn) [Compound 31a, 1-((1-(2-Hydroxy-1-phenylethyl)-1H-1,2,3-triazol-4-yl)methyl)-1H-benzimidazole], the IC50 in assay [1], in assay [2], in assay [3], in assay [5] and in assay [6] was over 100 µM in each case. Moreover, the “antiproliferative activity (in words)” value in assay [4] is “deprived of any activity”.
For the compound `OC(Cn1cc(Cn2cnc3ccccc32)nn1)c1ccccc1` (stereo not drawn) [Compound 31b, 1-((1-(2-Hydroxy-2-phenylethyl)-1H-1,2,3-triazol-4-yl)methyl)-1H-benzimidazole], the IC50 in assay [1] was over 100 µM; in assay [2] it was 91 ± 7.2 µM; in assay [3] it was over 100 µM; in assay [5] it was over 100 µM; in assay [6], over 100 µM. Moreover, the “antiproliferative activity (in words)” value in assay [4] is recorded as “deprived of any activity”.
For `OCC(c1ccccc1)n1cc(Cn2cnc3c(Cl)nccc32)nn1` (stereo not drawn) [Compound 46a, 4-Chloro-1-((1-(2-hydroxy-1-phenylethyl)-1H-1,2,3-triazol-4-yl)methyl)-1H-imidazo[4,5-c]pyridine], the IC50 in assay [1], in assay [2], in assay [3], in assay [5] and in assay [6] was over 100 µM throughout. Further, the “antiproliferative activity (in words)” value in assay [4] was “deprived of any activity”.
In the case of `OC(Cn1cc(Cn2cnc3c(Cl)nccc32)nn1)c1ccccc1` (stereo not drawn) [Compound 46b, 4-Chloro-1-((1-(2-hydroxy-2-phenylethyl)-1H-1,2,3-triazol-4-yl)methyl)-1H-imidazo[4,5-c]pyridine], the 50% inhibitory concentration (IC50) in assay [1], in assay [2], in assay [3], in assay [5] and in assay [6] was over 100 µM throughout. Also, the “antiproliferative activity (in words)” value in assay [4] was “deprived of any activity”.

Source of the values: paper PMC11940194, “Synthesis, Antiproliferative Activity, and ADME Profiling of Novel Racemic and Optically Pure Aryl-Substituted Purines and Purine Bioisosteres” (Biomolecules, 2025).
